Measured values from patent publication US20240261417A1, “SOS1 DEGRADING AGENT AND PREPARATION METHOD THEREFOR AND APPLICATION THEREOF” (SHANGHAI LEADINGTAC PHARMACEUTICAL CO. LTD., priority 2021, published 2024).

Biological target: T1, SOS1 protein (Homo sapiens, UniProt Q07889)
T1 sequence (Q07889 1-1333): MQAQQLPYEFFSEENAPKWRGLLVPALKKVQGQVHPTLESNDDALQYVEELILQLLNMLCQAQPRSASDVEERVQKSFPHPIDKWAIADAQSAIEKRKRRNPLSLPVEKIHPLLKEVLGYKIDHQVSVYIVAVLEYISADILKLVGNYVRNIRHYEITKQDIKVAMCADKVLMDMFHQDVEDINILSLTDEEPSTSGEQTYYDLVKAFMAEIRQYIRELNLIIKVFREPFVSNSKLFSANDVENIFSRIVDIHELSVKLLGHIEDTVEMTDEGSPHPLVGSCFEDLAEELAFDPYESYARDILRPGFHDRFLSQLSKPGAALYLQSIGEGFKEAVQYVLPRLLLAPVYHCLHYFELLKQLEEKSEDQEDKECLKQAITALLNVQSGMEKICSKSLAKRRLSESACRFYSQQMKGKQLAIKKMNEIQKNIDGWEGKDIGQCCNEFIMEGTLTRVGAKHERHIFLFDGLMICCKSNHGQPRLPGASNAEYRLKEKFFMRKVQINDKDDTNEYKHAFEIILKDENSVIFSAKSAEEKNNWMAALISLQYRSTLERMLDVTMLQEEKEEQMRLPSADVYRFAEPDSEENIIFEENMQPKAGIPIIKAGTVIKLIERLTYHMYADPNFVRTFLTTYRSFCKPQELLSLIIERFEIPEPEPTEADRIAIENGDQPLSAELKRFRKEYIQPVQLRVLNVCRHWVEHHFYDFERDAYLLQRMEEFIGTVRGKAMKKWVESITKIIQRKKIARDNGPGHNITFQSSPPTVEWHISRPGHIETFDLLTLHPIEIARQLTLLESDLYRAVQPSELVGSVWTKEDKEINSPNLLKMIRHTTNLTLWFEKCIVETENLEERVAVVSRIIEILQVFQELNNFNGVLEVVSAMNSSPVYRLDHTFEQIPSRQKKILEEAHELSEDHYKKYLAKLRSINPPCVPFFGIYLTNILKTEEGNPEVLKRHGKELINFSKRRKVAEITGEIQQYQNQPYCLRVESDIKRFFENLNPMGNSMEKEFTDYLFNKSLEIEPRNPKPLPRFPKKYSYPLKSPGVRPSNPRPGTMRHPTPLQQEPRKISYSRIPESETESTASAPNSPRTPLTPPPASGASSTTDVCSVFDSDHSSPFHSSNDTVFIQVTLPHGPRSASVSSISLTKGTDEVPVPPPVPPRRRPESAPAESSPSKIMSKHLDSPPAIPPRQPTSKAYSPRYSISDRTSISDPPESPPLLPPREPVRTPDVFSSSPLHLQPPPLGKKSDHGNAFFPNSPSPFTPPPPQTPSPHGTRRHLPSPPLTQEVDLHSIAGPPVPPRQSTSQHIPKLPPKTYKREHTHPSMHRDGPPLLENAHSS
Assay: SOS1 degradation assay (Western blot), NCI-H358 cells
Type: cell-based
Design: The degradation of SOS1 by the compounds was investigated on KRAS G12C mutant human non-small cell lung cancer cells NCI-H358; host or cells: NCI-H358 (human cancer cell lines)
Settings: SOS1 degradation, NCI-H358 cells, 24 h, Western blot; for DC50: read-out: NCI-H358 (G12C) DC50; for Dmax: read-out: NCI-H358 (G12C) Dmax
Experimental: The specific procedures were as follows:
0.95 mL of cells were seeded into each well of a 24-well cell culture plate to achieve a cell density of 5×10^5 cells/well; the cell plate was incubated in an incubator at 37° C. with 5% CO2 overnight. Then 50 μL of the compound solution after dilution was added to each of the wells with the corresponding cells, so that the final concentration of the compound was in a range of 0.03-3000 nM. […] After dosing, the cell plate was incubated in an incubator at 37° C. with 5% CO2 for 24 h. […] After the plate was left to stand on ice for 30 min, the protein lysate in each well was transferred to a 1.5 mL centrifuge tube and centrifuged at 15000 g for 20 min at 4° C. The cell lysate supernatant after centrifugation was cryopreserved at −80° C. for testing and was used for determining the degradation level of the SOS1 protein by a WB method. The concentration of total protein in the cell lysate supernatant was determined using the BCA Protein Quantification Kit (Tiangen, PA115-02).
The concentration of total protein in the cell lysate was determined by BCA. The total protein was adjusted to 0.5 μg/μL with PBS and 5× SDS-PAGE protein loading buffer (Beyotime, P0015L), incubated in a water bath at 100° C. for 15 min, incubated in an ice bath on ice for 5 min, centrifuged at 14000 g for 1 min at 4° C., and mixed well as a loading sample for WB. Protein electrophoresis was performed on a precast gel (KeyGEN, KGMGO10W15) with a loading volume of 10 μL (total protein: 5 μg) using a Tris-MOPS-SDS running solution (Adamas, P1598253) at a constant voltage of 120 V for 55 min. After the electrophoresis, the protein on the gel strip was transferred to a PVDF membrane at a constant current of 250 mA for 65 min. After the membrane transfer, the membrane was incubated in 1× QuickBlock blocking buffer (Beyotime, P0235) for 30 min at room temperature. […] The protein map was subjected to gray value analysis by the chemiluminescence imaging system from Clinx. […] Then the degradation rate was calculated by comparing the gray correction value with the gray correction value of the control group. Then nonlinear curve fitting was performed by GraphPad Prism 8 in the logarithmic concentration-inhibition rate to obtain the DC50 and Dmax values of the compounds.

Row | Structure (SMILES) | DC50 [nM] | Dmax [%]
1 | COc1cc2nc(C)nc(N[C@H](C)c3cc(N)cc(C(F)(F)F)c3)c2cc1C1CCN(C(=O)C2CCN(CC3CCC4(CC3)CCN(C(=O)c3ccc(Cl)c(N5CCC(=O)NC5=O)c3)CC4)CC2)CC1 [Example 4] | 50 to 100 | 30 to 50
2 | COc1cc2nc(C)nc(N[C@H](C)c3cc(N)cc(C(F)(F)F)c3)c2cc1OC1CCN(C(=O)C2CCN(CC3CCC4(CC3)CCN(C(=O)c3ccc(Cl)c(N5CCC(=O)NC5=O)c3)CC4)CC2)CC1 [Example 5, (R)-1-(5-(9-((4-(4-((4-((1-(3-amino-5-(trifluoromethyl)phenyl)ethyl)amino)-7-methoxy-2-methylquinazolin-6-yl)oxy)piperidine-1-carbonyl)piperidin-1-yl)methyl)-3-azaspiro[5.5]undecane-3-carbonyl)-2-chlorophenyl)dihydropyrimidine-2,4(1H,3H)-dione] | 50 to 100 | 80 to 100
3 | COc1cc2nc(C)nc(N[C@H](C)c3cc(N)cc(C(F)(F)F)c3)c2cc1OC1CCN(CC2CCC3(CC2)CCN(C(=O)c2ccc(Cl)c(N4CCC(=O)NC4=O)c2)CC3)CC1 [Example 6, (R)-1-(5-(9-((4-((4-((1-(3-amino-5-(trifluoromethyl)phenyl)ethyl)amino)-7-methoxy-2-methylquinazolin-6-yl)oxy)piperidin-1-yl)methyl)-3-azaspiro[5.5]undecane-3-carbonyl)-2-chlorophenyl)dihydropyrimidine-2,4(1H,3H)-dione] | 1000 to 10000 | 30 to 50
4 | COc1cc2nc(C)nc(N[C@H](C)c3cc(N)cc(C(F)(F)F)c3)c2cc1[C@H]1CC[C@H](C(=O)N2CCC(CN3CCC4(CC3)CCN(C(=O)c3ccc(Cl)c(N5CCC(=O)NC5=O)c3)CC4)CC2)CC1 [Example 7, 1-(5-(9-((1-((1R,4R)-4-(4-(((R)-1-(3-amino-5-(trifluoromethyl)phenyl)ethyl)amino)-7-methoxy-2-methylquinazolin-6-yl)cyclohexane-1-carbonyl)piperidin-4-yl)methyl)-3,9-diazaspiro[5.5]undecane-3-carbonyl)-2-chlorophenyl)dihydropyrimidine-2,4(1H,3H)-dione] | 1000 to 10000 | 30 to 50
5 | COc1cc2nc(C)nc(N[C@H](C)c3cc(N)cc(C(F)(F)F)c3)c2cc1[C@H]1CC[C@H](C(=O)N2CCC(CC3CCC4(CC3)CCN(C(=O)c3ccc(Cl)c(N5CCC(=O)NC5=O)c3)CC4)CC2)CC1 [Example 8, 1-(5-(9-((1-((1R,4R)-4-(4-(((R)-1-(3-amino-5-(trifluoromethyl)phenyl)ethyl)amino)-7-methoxy-2-methylquinazolin-6-yl)cyclohexane-1-carbonyl)piperidin-4-yl)methyl)-3-azaspiro[5.5]undecane-3-carbonyl)-2-chlorophenyl)dihydropyrimidine-2,4(1H,3H)-dione] | 50 to 100 | 80 to 100
6 | COc1cc2nc(C)nc(N[C@H](C)c3cc(N)cc(C(F)(F)F)c3)c2cc1[C@H]1CC[C@H](C(=O)N(C)CC2CCC3(CC2)CCN(C(=O)c2ccc(Cl)c(N4CCC(=O)NC4=O)c2)CC3)CC1 [Example 9, (1R,4R)-4-(4-(((R)-1-(3-amino-5-(trifluoromethyl)phenyl)ethyl)amino)-7-methoxy-2-methylquinazolin-6-yl)-N-((3-(4-chloro-3-(2,4-dioxotetrahydropyrimidin-1(2H)-yl)benzoyl)-3-azaspiro[5.5]undecane-9-yl)methyl)-N-methylcyclohexane-1-carboxamide] | 1000 to 10000 | < 30
7 | COc1cc2nc(C)nc(N[C@H](C)c3cc(N)cc(C(F)(F)F)c3)c2cc1[C@H]1CC[C@H](C(=O)N2CCN(CCCC3CCN(C(=O)c4ccc(Cl)c(N5CCC(=O)NC5=O)c4)CC3)CC2)CC1 [Example 11, 1-(5-(4-(3-(4-((1R,4R)-4-(4-(((R)-1-(3-amino-5-(trifluoromethyl)phenyl)ethyl)amino)-7-methoxy-2-methylquinazolin-6-yl)cyclohexane-1-carbonyl)piperazin-1-yl)propyl)piperidine-1-carbonyl)-2-chlorophenyl)dihydropyrimidine-2,4(1H,3H)-dione] | 1000 to 10000 | 30 to 50
8 | COc1cc2nc(C)nc(N[C@H](C)c3cc(N)cc(C(F)(F)F)c3)c2cc1[C@H]1CC[C@H](C(=O)N2CCN(CCC3CCN(C(=O)c4ccc(Cl)c(N5CCC(=O)NC5=O)c4)CC3)CC2)CC1 [Example 12, 1-(5-(4-(2-(4-((1R,4R)-4-(4-(((R)-1-(3-amino-5-(trifluoromethyl)phenyl)ethyl)amino)-7-methoxy-2-methylquinazolin-6-yl)cyclohexane-1-carbonyl)piperazin-1-yl)ethyl)piperidine-1-carbonyl)-2-chlorophenyl)dihydropyrimidine-2,4(1H,3H)-dione] | 1000 to 10000 | 30 to 50
9 | COc1cc2nc(C)nc(N[C@H](C)c3cc(N)cc(C(F)(F)F)c3)c2cc1[C@H]1CC[C@H](C(=O)N2CCN(CC3CCN(C(=O)c4ccc(Cl)c(N5CCC(=O)NC5=O)c4)CC3)CC2)CC1 [Example 13, 1-(5-(4-((4-((1R,4R)-4-(4-(((R)-1-(3-amino-5-(trifluoromethyl)phenyl)ethyl)amino)-7-methoxy-2-methylquinazolin-6-yl)cyclohexane-1-carbonyl)piperazin-1-yl)methyl)piperidine-1-carbonyl)-2-chlorophenyl)dihydropyrimidine-2,4(1H,3H)-dione] | 1000 to 10000 | 30 to 50
10 | COc1cc2nc(C)nc(N[C@H](C)c3cc(N)cc(C(F)(F)F)c3)c2cc1[C@H]1CC[C@H](C(=O)N2CCC(CCCC3CCN(C(=O)c4ccc(Cl)c(N5CCC(=O)NC5=O)c4)CC3)CC2)CC1 [Example 14, 1-(5-(4-(3-(1-((1R,4R)-4-(4-(((R)-1-(3-amino-5-(trifluoromethyl)phenyl)ethyl)amino)-7-methoxy-2-methylquinazolin-6-yl)cyclohexane-1-carbonyl)piperidin-4-yl)propyl)piperidine-1-carbonyl)-2-chlorophenyl)dihydropyrimidine-2,4(1H,3H)-dione] | < 50 | 50 to 80
